Data on four compounds can be found in ChEMBL document CHEMBL1150229, “Serrulatane diterpenes with antimycobacterial activity isolated from the West Indian sea whip Pseudopterogorgia elisabethae” (2001).

Active and inactive are the calls of the source. The rule behind the calls is not given here.

Experiment [1] relates to Mycobacterium tuberculosis. Kind of experiment: Antitubercular activity against Mycobacterium tuberculosis H37Rv at 12.5 ug/ml. It counts as functional.
A further experiment concerns NCI60. Kind of experiment: Cytotoxicity against human NCI60 cells. It counts as functional, cell-based.
The subject of experiment [2] is Mycobacterium tuberculosis. Nature of the experiment: Antitubercular activity against Mycobacterium tuberculosis H37Rv at 6.25 ug/ml. It counts as functional.

`CC(C)=C[C@@H]1C[C@H](C)[C@H]2CC[C@H](C)c3c2c1c(C)c1ncoc31` [PSEUDOPTEROXAZOLE] yielded an Activity in experiment [1] of 97%.
In experiment [1], `CC(C)=CCC[C@H](C)[C@H]1CC[C@H](C)c2ccc(C)cc21` [EROGORGIAENE] returned an Activity of 96%.
Take `CC(C)=CCC[C@H](C)[C@H]1CC[C@H](C)c2cc(O)c(C)cc21`: the outcome with NCI60 was inactive. In experiment [2], this compound had an Activity of 77%.
`CC(C)=CCC[C@H](C)[C@H]1CC[C@H](C)c2c1cc(C)c1ncoc21`: in experiment [1], the Activity worked out at 66%.
